In the kinase profiling compilation of Christmann-Franck et al. (2016):
Where “and” joins values, the source holds several entries; their conditions need not be identical. Identical values can stand only once.

Key:
Experiment in all cases: radiometric filter-binding kinase assay, Kinase HotSpot
Settings in all cases: compound 0.5 µM; ATP 10 µM
[1] = target: JAK1 JH1 catalytic (human) (UniProt P23458)
[2] = target: CLK4 (human) (UniProt Q9HAZ1)
[3] = target: STK24 (human) (UniProt Q9Y6E0)
[4] = target: CSNK1A1 (human) (UniProt P48729)
CSNK1A1 (human), sequence (P48729 whole entry, looked up): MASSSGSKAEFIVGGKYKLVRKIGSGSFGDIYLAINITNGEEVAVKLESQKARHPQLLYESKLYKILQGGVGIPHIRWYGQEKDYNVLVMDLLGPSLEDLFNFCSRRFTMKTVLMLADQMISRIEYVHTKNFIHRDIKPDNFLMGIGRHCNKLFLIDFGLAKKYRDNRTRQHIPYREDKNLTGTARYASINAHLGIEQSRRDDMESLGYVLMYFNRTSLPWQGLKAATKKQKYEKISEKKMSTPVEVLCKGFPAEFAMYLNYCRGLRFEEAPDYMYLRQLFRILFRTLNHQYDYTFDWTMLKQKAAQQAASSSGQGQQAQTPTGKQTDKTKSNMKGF

[5] = target: NUAK1 (human) (UniProt O60285)
NUAK1 (human), sequence (O60285 whole entry, looked up): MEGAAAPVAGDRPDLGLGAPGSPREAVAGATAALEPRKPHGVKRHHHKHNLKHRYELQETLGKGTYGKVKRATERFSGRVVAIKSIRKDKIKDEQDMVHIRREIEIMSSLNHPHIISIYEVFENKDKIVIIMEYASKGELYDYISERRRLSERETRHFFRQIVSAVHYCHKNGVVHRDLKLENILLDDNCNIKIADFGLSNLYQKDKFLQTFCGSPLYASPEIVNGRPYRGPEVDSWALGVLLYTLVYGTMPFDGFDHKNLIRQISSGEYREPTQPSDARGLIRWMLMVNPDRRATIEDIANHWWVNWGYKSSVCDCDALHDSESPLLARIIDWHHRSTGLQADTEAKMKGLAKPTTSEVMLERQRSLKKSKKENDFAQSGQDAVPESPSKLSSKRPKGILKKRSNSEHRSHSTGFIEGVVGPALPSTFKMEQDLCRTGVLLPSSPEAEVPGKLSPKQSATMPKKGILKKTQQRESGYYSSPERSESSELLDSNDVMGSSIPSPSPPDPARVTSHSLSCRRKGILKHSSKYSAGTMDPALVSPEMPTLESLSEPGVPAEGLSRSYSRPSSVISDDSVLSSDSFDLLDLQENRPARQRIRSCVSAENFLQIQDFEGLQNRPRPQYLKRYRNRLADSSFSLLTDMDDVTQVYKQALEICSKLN

[6] = target: CDK6 CCND1 (human) (UniProt Q00534+P24385)
[7] = target: LYN (human) (UniProt P07948)
[8] = target: PTK6 (human) (UniProt Q13882)
[9] = target: CDK9 CCNT1 (human) (UniProt P50750+O60563)
[10] = target: NTRK3 (human) (UniProt Q16288)
NTRK3 (human), sequence (Q16288 whole entry, looked up): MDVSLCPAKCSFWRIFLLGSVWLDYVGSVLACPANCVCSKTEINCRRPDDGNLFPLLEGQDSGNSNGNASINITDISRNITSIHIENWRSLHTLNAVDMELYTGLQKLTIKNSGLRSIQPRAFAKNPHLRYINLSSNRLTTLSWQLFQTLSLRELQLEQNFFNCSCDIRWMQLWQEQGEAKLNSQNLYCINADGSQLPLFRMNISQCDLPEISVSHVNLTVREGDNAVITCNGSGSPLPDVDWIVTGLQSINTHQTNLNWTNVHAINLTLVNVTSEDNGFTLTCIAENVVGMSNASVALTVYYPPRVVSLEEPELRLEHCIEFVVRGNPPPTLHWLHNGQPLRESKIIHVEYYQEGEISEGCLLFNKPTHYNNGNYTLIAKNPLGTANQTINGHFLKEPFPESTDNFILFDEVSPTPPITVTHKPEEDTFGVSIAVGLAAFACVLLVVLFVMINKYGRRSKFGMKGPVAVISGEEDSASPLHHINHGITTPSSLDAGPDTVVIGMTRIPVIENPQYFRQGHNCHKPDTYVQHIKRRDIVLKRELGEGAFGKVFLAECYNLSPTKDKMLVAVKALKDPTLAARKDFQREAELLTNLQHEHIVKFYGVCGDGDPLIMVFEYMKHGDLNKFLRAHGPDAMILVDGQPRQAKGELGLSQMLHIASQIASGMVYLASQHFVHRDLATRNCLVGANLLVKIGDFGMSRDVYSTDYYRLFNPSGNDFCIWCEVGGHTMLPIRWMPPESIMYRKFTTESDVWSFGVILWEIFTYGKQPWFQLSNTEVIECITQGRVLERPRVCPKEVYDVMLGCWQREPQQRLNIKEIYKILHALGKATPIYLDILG

[11] = target: NEK3 (human) (UniProt P51956)
NEK3 (human), sequence (P51956 whole entry, looked up): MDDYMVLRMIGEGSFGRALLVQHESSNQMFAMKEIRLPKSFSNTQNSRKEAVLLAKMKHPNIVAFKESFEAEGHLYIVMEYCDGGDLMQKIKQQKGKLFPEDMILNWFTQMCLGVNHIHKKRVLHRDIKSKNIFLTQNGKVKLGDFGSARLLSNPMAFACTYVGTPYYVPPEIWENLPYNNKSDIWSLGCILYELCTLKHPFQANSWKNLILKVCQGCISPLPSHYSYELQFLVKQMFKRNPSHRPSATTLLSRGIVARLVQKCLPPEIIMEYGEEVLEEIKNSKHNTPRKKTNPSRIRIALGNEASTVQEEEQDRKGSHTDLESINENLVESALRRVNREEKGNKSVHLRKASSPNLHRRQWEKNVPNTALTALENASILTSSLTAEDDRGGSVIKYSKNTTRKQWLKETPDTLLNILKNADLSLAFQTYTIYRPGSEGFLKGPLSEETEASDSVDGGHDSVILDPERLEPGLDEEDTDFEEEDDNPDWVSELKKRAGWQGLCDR

[12] = target: RPS6KA1 KD1 KD2 (human) (UniProt Q15418)
[13] = target: PRKG1 (human) (UniProt Q13976)
[14] = target: FGFR2 (human) (UniProt P21802)
[15] = target: PNCK (human) (UniProt Q6P2M8)
PNCK (human), sequence (Q6P2M8 whole entry, looked up): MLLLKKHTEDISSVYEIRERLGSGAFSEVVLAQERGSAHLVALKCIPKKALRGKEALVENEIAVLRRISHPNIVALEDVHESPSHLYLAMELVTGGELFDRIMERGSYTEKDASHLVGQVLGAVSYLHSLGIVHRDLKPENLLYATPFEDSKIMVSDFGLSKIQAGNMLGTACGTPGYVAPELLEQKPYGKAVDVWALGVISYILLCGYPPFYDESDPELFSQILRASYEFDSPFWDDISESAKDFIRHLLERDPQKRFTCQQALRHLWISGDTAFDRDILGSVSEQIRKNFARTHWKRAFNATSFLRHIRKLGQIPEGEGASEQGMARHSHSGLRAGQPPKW

[16] = target: NEK11 (human) (UniProt Q8NG66)
[17] = target: PAK6 (human) (UniProt Q9NQU5)
[18] = target: SRMS (human) (UniProt Q9H3Y6)
[19] = target: PRKCH (human) (UniProt P24723)
[20] = target: TTK (human) (UniProt P33981)
[21] = target: FYN (human) (UniProt P06241)
[22] = target: ADRBK1 (human) (UniProt P25098)
[23] = target: MAPK9 (human) (UniProt P45984)
[24] = target: KDR (human) (UniProt P35968)
[25] = target: NTRK2 (human) (UniProt Q16620)
[26] = target: ULK1 (human) (UniProt O75385)
[27] = target: MELK (human) (UniProt Q14680)
[28] = target: RPS6KB2 (human) (UniProt Q9UBS0)
[29] = target: PHKG2 (human) (UniProt P15735)
PHKG2 (human), sequence (P15735 whole entry, looked up): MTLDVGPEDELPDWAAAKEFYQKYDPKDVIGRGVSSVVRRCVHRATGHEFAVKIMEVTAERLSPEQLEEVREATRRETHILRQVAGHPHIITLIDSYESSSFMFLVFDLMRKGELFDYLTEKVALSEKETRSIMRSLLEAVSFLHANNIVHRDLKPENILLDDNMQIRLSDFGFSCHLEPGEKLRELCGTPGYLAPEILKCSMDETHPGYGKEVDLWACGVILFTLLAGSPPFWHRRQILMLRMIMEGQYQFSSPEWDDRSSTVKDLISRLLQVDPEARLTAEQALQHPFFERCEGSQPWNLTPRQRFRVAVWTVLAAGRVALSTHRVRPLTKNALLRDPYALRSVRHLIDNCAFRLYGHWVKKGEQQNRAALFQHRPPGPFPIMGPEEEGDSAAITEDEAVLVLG

[30] = target: KIT (human) (UniProt P10721)
KIT (human), sequence (P10721 whole entry, looked up): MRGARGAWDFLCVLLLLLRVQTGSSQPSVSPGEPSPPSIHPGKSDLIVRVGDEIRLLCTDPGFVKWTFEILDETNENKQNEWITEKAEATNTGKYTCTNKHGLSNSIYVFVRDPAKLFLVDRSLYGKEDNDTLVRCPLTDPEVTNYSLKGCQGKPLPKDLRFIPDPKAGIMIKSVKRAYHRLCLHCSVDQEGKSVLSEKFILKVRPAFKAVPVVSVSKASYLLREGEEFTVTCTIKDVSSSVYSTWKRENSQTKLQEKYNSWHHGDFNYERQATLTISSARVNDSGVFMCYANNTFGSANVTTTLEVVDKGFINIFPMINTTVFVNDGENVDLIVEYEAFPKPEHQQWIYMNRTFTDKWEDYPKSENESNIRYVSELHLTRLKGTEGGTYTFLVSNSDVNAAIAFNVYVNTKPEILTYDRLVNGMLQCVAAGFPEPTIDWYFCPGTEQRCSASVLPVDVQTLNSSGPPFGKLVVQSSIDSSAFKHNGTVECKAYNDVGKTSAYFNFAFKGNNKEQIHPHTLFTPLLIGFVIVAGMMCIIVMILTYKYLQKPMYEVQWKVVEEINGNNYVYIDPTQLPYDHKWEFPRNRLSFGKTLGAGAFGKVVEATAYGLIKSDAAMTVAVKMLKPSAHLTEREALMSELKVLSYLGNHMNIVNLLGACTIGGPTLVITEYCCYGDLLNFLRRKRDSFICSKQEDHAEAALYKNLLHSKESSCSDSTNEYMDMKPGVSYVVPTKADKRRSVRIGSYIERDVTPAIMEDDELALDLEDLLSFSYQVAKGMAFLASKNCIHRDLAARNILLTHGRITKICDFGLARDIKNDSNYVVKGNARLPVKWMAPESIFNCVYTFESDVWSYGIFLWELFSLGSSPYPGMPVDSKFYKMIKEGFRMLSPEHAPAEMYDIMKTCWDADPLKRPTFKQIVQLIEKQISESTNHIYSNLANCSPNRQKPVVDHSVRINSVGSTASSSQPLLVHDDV

[31] = target: LTK (human) (UniProt P29376)
[32] = target: SRPK1 (human) (UniProt Q96SB4)
[33] = target: RPS6KA5 KD2 (human) (UniProt O75582)
RPS6KA5 KD2 (human), sequence (O75582 whole entry, looked up): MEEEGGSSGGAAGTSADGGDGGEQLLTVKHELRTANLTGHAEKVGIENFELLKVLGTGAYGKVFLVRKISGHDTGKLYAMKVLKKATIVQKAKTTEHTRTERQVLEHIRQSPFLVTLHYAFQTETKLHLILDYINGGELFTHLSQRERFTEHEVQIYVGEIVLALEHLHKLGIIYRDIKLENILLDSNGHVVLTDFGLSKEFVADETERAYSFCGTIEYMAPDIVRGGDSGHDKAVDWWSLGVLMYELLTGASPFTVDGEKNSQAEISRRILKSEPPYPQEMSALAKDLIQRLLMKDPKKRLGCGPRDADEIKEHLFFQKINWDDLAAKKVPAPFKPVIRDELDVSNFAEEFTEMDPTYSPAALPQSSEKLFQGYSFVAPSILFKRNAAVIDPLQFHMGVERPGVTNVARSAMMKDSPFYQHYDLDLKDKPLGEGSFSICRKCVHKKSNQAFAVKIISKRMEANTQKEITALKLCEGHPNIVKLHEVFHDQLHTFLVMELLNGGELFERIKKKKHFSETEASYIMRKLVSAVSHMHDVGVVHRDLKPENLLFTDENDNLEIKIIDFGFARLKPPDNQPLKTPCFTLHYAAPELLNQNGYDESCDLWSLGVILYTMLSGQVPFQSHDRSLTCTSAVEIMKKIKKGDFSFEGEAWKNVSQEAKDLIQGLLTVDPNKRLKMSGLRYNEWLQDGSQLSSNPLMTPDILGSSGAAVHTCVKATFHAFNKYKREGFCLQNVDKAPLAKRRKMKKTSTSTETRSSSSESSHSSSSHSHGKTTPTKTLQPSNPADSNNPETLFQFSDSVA

[34] = target: PTK2 (human) (UniProt Q05397)
[35] = target: MAPK3 (human) (UniProt P27361)
[36] = target: EPHB1 (human) (UniProt P54762)
[37] = target: MAP3K11 (human) (UniProt Q16584)
[38] = target: MLTK (human) (UniProt Q9NYL2)
[39] = target: SRPK2 (human) (UniProt P78362)
[40] = target: CAMK1 (human) (UniProt Q14012)
[41] = target: RET (human) (UniProt P07949)
[42] = target: NEK1 (human) (UniProt Q96PY6)

O=c1cc(-c2cccc3c2Sc2ccccc2S3)oc(N2CCOCC2)c1
residual activity [1]: 105%
residual activity [2]: 101%
residual activity [3]: 97.8%
residual activity [4]: 94.9%
residual activity [5]: 93.1%
residual activity [6]: 98.1%
residual activity [7]: 106% and 116%
residual activity [8]: 90.6%
residual activity [9]: 100%
residual activity [10]: 99.7%
residual activity [11]: 102%
residual activity [12]: 97.6%
residual activity [13]: 102% and 103%
residual activity [14]: 98.7%
residual activity [15]: 109%
residual activity [16]: 88.5%
residual activity [17]: 95.6%
residual activity [18]: 93.8%
residual activity [19]: 99.7%
residual activity [20]: 106%
residual activity [21]: 88.6%
residual activity [22]: 79%
residual activity [23]: 97.7%
residual activity [24]: 95.9%
residual activity [25]: 99.1%
residual activity [26]: 91.9%
residual activity [27]: 99.9%
residual activity [28]: 102%
residual activity [29]: 98.6%
residual activity [30]: 96.8%
residual activity [31]: 94.1%
residual activity [32]: 105%
residual activity [33]: 117%
residual activity [34]: 113%
residual activity [35]: 118%
residual activity [36]: 110%
residual activity [37]: 98.6%
residual activity [38]: 100%
residual activity [39]: 110%
residual activity [40]: 94.2%
residual activity [41]: 82.4%
residual activity [42]: 100%

Nc1n[nH]c2nnc(-c3c(-c4ccccc4)nn4ccccc34)cc12
residual activity [1]: 104%
residual activity [2]: 101%
residual activity [3]: 74.6%
residual activity [4]: 100%
residual activity [5]: 92.5%
residual activity [6]: 100%
residual activity [7]: 94.9% and 97.1%
residual activity [8]: 90.8%
residual activity [9]: 97.3%
residual activity [10]: 76.6%
residual activity [11]: 82.7%
residual activity [12]: 95.1%
residual activity [13]: 89.5% and 93.6%
residual activity [14]: 102%
residual activity [15]: 99.6%
residual activity [16]: 95.1%
residual activity [17]: 96.4%
residual activity [18]: 93%
residual activity [19]: 77.2%
residual activity [20]: 110%
residual activity [21]: 95%
residual activity [22]: 95%
residual activity [23]: 48.4%
residual activity [24]: 101%
residual activity [25]: 89.7%
residual activity [26]: 97.1%
residual activity [27]: 102%
residual activity [28]: 104%
residual activity [29]: 82.6%
residual activity [30]: 97.1%
residual activity [31]: 90.5%
residual activity [32]: 83.7%
residual activity [33]: 101%
residual activity [34]: 99.2%
residual activity [35]: 65.8%
residual activity [36]: 98.6%
residual activity [37]: 94.3%
residual activity [38]: 101%
residual activity [39]: 73.8%
residual activity [40]: 102%
residual activity [41]: 93.7%
residual activity [42]: 109%

O=C(NC(NC(=S)Nc1ccc(F)c([N+](=O)[O-])c1)C(Cl)(Cl)Cl)C(c1ccccc1)c1ccccc1 (stereo unspecified)
residual activity [1]: 106%
residual activity [2]: 105%
residual activity [3]: 92.8%
residual activity [4]: 94.1%
residual activity [5]: 95.3%
residual activity [6]: 101%
residual activity [7]: 103% and 116%
residual activity [8]: 87.8%
residual activity [9]: 95%
residual activity [10]: 108%
residual activity [11]: 96.2%
residual activity [12]: 105%
residual activity [13]: 100% and 109%
residual activity [14]: 97.7%
residual activity [15]: 115%
residual activity [16]: 92.2%
residual activity [17]: 101%
residual activity [18]: 96.9%
residual activity [19]: 103%
residual activity [20]: 96.9%
residual activity [21]: 91.2%
residual activity [22]: 79.5%
residual activity [23]: 88.6%
residual activity [24]: 92.5%
residual activity [25]: 97.7%
residual activity [26]: 99.1%
residual activity [27]: 102%
residual activity [28]: 99.3%
residual activity [29]: 109%
residual activity [30]: 97.2%
residual activity [31]: 91.5%
residual activity [32]: 99.3%
residual activity [33]: 113%
residual activity [34]: 113%
residual activity [35]: 120%
residual activity [36]: 109%
residual activity [37]: 102%
residual activity [38]: 98.6%
residual activity [39]: 103%
residual activity [40]: 93.1%
residual activity [41]: 103%
residual activity [42]: 101%
